In patent US12077503B2, “Substituted cyclic amides and their use as herbicides” (FMC CORPORATION, priority 2015, dated 2024):

How the values were obtained:
Format in all cases: in vivo
[1] = test system: barnyardgrass (Echinochloa crus-galli); experiment: Test G Pre-Emergence Protocol; settings: Echinochloa crus-galli, pre-emergence, 312 h, evaluated after 13 days; for pest or weed control at 15.625 g/ha: 15.625 g ai/ha; for pest or weed control at 15.625 g/ha / pest or weed control at 250 g/ha: read-out: Barnyardgrass damage rating (100=total damage to plant; 0=no damage to plant); for pest or weed control at 62.5 g/ha: 62.5 g ai/ha, 100=total damage to plant, 0=no damage to plant, read-out: Barnyardgrass damage rating; for pest or weed control at 250 g/ha: 250 g ai/ha
Outline: (§1)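 One day after sowing, pots are treated with a spray of test compound formulated in acetone/water 50:50 plus 0.5% Tween 20, giving 15.625, 62.5 or 250 g/ha. Evaluation on a 0–100 damage scale follows 13 days of glasshouse growth.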

[2] = test system: giant foxtail (Setaria faberi); experiment: Test G Pre-Emergence Protocol; settings: Setaria faberi, pre-emergence, 312 h, evaluated after 13 days; for pest or weed control at 15.625 g/ha: 15.625 g ai/ha; for pest or weed control at 15.625 g/ha / pest or weed control at 250 g/ha: read-out: Foxtail, Giant damage rating (100=total damage to plant; 0=no damage to plant); for pest or weed control at 62.5 g/ha: 62.5 g ai/ha, 100=total damage to plant, 0=no damage to plant, read-out: Foxtail, Giant damage rating; for pest or weed control at 250 g/ha: 250 g ai/ha
Outline: as §1

[3] = test system: ivy-leaved morning glory (Ipomoea hederacea); experiment: Test G Pre-Emergence Protocol; settings: Ipomoea, pre-emergence, 312 h, evaluated after 13 days; for pest or weed control at 15.625 g/ha: 15.625 g ai/ha; for pest or weed control at 15.625 g/ha / pest or weed control at 250 g/ha: read-out: Morningglory, Ivy-leaved damage rating (100=total damage to plant; 0=no damage to plant); for pest or weed control at 62.5 g/ha: 62.5 g ai/ha, 100=total damage to plant, 0=no damage to plant, read-out: Morningglory, Ivy-leaved damage rating; for pest or weed control at 250 g/ha: 250 g ai/ha
Outline: as §1

corn (Zea mays) [4] = experiment: Test G Pre-Emergence Protocol; settings: Zea mays, pre-emergence, 312 h, evaluated after 13 days; for plant injury at 15.625 g/ha: 15.625 g ai/ha; for plant injury at 15.625 g/ha / plant injury at 250 g/ha: read-out: Corn damage rating (100=total damage to plant; 0=no damage to plant); for plant injury at 62.5 g/ha: 62.5 g ai/ha, 100=total damage to plant, 0=no damage to plant, read-out: Corn damage rating; for plant injury at 250 g/ha: 250 g ai/ha
Outline: as §1

[5] = test system: velvetleaf (Abutilon theophrasti); experiment: Test G Pre-Emergence Protocol; settings: Abutilon theophrasti, pre-emergence, 312 h, evaluated after 13 days; for pest or weed control at 15.625 g/ha: 15.625 g ai/ha; for pest or weed control at 15.625 g/ha / pest or weed control at 250 g/ha: read-out: Velvetleaf damage rating (100=total damage to plant; 0=no damage to plant); for pest or weed control at 62.5 g/ha: 62.5 g ai/ha, 100=total damage to plant, 0=no damage to plant, read-out: Velvetleaf damage rating; for pest or weed control at 250 g/ha: 250 g ai/ha
Outline: as §1

[6] = test system: redroot pigweed (Amaranthus retroflexus); experiment: Test G Pre-Emergence Protocol; settings: Amaranthus retroflexus, pre-emergence, 312 h, evaluated after 13 days; for pest or weed control at 15.625 g/ha: 15.625 g ai/ha; for pest or weed control at 15.625 g/ha / pest or weed control at 250 g/ha: read-out: Pigweed, Redroot damage rating (100=total damage to plant; 0=no damage to plant); for pest or weed control at 62.5 g/ha: 62.5 g ai/ha, 100=total damage to plant, 0=no damage to plant, read-out: Pigweed, Redroot damage rating; for pest or weed control at 250 g/ha: 250 g ai/ha
Outline: as §1

[7] = test system: barnyardgrass (Echinochloa crus-galli); experiment: Test G Post-Emergence Protocol; settings: Echinochloa crus-galli, post-emergence, 312 h, read-out: Barnyardgrass damage rating; for pest or weed control at 15.625 g/ha: 15.625 g ai/ha, evaluated after 13 days (100=total damage to plant; 0=no damage to plant); for pest or weed control at 62.5 g/ha: 62.5 g ai/ha; for pest or weed control at 62.5 g/ha / pest or weed control at 250 g/ha: evaluated after 13 days, 100=total damage to plant, 0=no damage to plant; for pest or weed control at 250 g/ha: 250 g ai/ha
Outline: (§2)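 Values are percent visual injury at 13 days after treatment (0 none, 100 total). Treatment was a post-emergence spray at 15.625, 62.5 or 250 g/ha on 8-day-old pot plants kept at 24/16 °C.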

[8] = test system: giant foxtail (Setaria faberi); experiment: Test G Post-Emergence Protocol; settings: Setaria faberi, post-emergence, 312 h, read-out: Foxtail, Giant damage rating; for pest or weed control at 15.625 g/ha: 15.625 g ai/ha, evaluated after 13 days (100=total damage to plant; 0=no damage to plant); for pest or weed control at 62.5 g/ha: 62.5 g ai/ha
Outline: as §2

[9] = test system: ivy-leaved morning glory (Ipomoea hederacea); experiment: Test G Post-Emergence Protocol; settings: Ipomoea, post-emergence, 312 h, read-out: Morningglory, Ivy-leaved damage rating; for pest or weed control at 15.625 g/ha: 15.625 g ai/ha, evaluated after 13 days (100=total damage to plant; 0=no damage to plant); for pest or weed control at 62.5 g/ha: 62.5 g ai/ha; for pest or weed control at 62.5 g/ha / pest or weed control at 250 g/ha: evaluated after 13 days, 100=total damage to plant, 0=no damage to plant; for pest or weed control at 250 g/ha: 250 g ai/ha
Outline: as §2

corn (Zea mays) [10] = experiment: Test G Post-Emergence Protocol; settings: Zea mays, post-emergence, 312 h, read-out: Corn damage rating; for plant injury at 15.625 g/ha: 15.625 g ai/ha, evaluated after 13 days (100=total damage to plant; 0=no damage to plant); for plant injury at 62.5 g/ha: 62.5 g ai/ha; for plant injury at 62.5 g/ha / plant injury at 250 g/ha: evaluated after 13 days, 100=total damage to plant, 0=no damage to plant; for plant injury at 250 g/ha: 250 g ai/ha
Outline: as §2

[11] = test system: velvetleaf (Abutilon theophrasti); experiment: Test G Post-Emergence Protocol; settings: Abutilon theophrasti, post-emergence, 312 h, read-out: Velvetleaf damage rating; for pest or weed control at 15.625 g/ha: 15.625 g ai/ha, evaluated after 13 days (100=total damage to plant; 0=no damage to plant); for pest or weed control at 62.5 g/ha: 62.5 g ai/ha; for pest or weed control at 62.5 g/ha / pest or weed control at 250 g/ha: evaluated after 13 days, 100=total damage to plant, 0=no damage to plant; for pest or weed control at 250 g/ha: 250 g ai/ha
Outline: as §2

[12] = test system: redroot pigweed (Amaranthus retroflexus); experiment: Test G Post-Emergence Protocol; settings: Amaranthus retroflexus, post-emergence, 312 h, read-out: Pigweed, Redroot damage rating; for pest or weed control at 15.625 g/ha: 15.625 g ai/ha, evaluated after 13 days (100=total damage to plant; 0=no damage to plant); for pest or weed control at 62.5 g/ha: 62.5 g ai/ha; for pest or weed control at 62.5 g/ha / pest or weed control at 250 g/ha: evaluated after 13 days, 100=total damage to plant, 0=no damage to plant; for pest or weed control at 250 g/ha: 250 g ai/ha
Outline: as §2

[13] = evaluated after 13 days, 100=total damage to plant, 0=no damage to plant

| Compound | pest or weed control at 15.625 g/ha [1] [%] | pest or weed control at 62.5 g/ha [1] [%] | pest or weed control at 250 g/ha [1] [%] | pest or weed control at 15.625 g/ha [2] [%] | pest or weed control at 62.5 g/ha [2] [%] | pest or weed control at 250 g/ha [2] [%] | pest or weed control at 15.625 g/ha [3] [%] | pest or weed control at 62.5 g/ha [3] [%] | pest or weed control at 250 g/ha [3] [%] | plant injury at 15.625 g/ha (corn (Zea mays) [4]) [%] | plant injury at 62.5 g/ha (corn (Zea mays) [4]) [%] | plant injury at 250 g/ha (corn (Zea mays) [4]) [%] | pest or weed control at 15.625 g/ha [5] [%] | pest or weed control at 62.5 g/ha [5] [%] | pest or weed control at 250 g/ha [5] [%] | pest or weed control at 15.625 g/ha [6] [%] | pest or weed control at 62.5 g/ha [6] [%] | pest or weed control at 250 g/ha [6] [%] | pest or weed control at 15.625 g/ha [7] [%] | pest or weed control at 62.5 g/ha [7] [%] | further results |
| --- | --- | --- | --- | --- | --- | --- | --- | --- | --- | --- | --- | --- | --- | --- | --- | --- | --- | --- | --- | --- | --- |
| CN1CC(c2ccc(Cl)c([N+](=O)[O-])c2)C(C(=O)Nc2cccc(F)c2F)C1=O (centres unmarked) [Compound 1685] | 30 | 70 | 80 | 40 | 70 | 90 | 10 | 20 | 30 | 0 | 0 | 60 | 10 | 10 | 30 | 0 | 10 | 60 | 30 | 60 | pest or weed control at 250 g/ha [7]: 80%; pest or weed control at 15.625 g/ha [8]: 70%; pest or weed control at 62.5 g/ha [8, 13]: 70%; pest or weed control at 250 g/ha ([8]; 250 g ai/ha, evaluated after 13 days, 100=total damage to plant, 0=no damage to plant): 80%; pest or weed control at 15.625 g/ha [9]: 40%; pest or weed control at 62.5 g/ha [9]: 30%; pest or weed control at 250 g/ha [9]: 70%; plant injury at 15.625 g/ha (corn (Zea mays) [10]): 10%; plant injury at 62.5 g/ha (corn (Zea mays) [10]): 40%; plant injury at 250 g/ha (corn (Zea mays) [10]): 70%; pest or weed control at 15.625 g/ha [11]: 10%; pest or weed control at 62.5 g/ha [11]: 30%; pest or weed control at 250 g/ha [11]: 60%; pest or weed control at 15.625 g/ha [12]: 40%; pest or weed control at 62.5 g/ha [12]: 50%; pest or weed control at 250 g/ha [12]: 70% |
| Cc1cc(C#N)cc(C2CN(C)C(=O)C2C(=O)Nc2cccc(F)c2F)c1 (centres unmarked) [Compound 1691] | 20 | 70 | 80 | 60 | 90 | 90 | 0 | 20 | 50 | 0 | 20 | 80 | 0 | 40 | 60 | 0 | 20 | 30 | 30 | 70 | pest or weed control at 250 g/ha [7]: 70%; pest or weed control at 15.625 g/ha [8]: 60%; pest or weed control at 62.5 g/ha [8, 13]: 80%; pest or weed control at 15.625 g/ha [9]: 0%; pest or weed control at 62.5 g/ha [9]: 60%; pest or weed control at 250 g/ha [9]: 30%; plant injury at 15.625 g/ha (corn (Zea mays) [10]): 0%; plant injury at 62.5 g/ha (corn (Zea mays) [10]): 0%; plant injury at 250 g/ha (corn (Zea mays) [10]): 70%; pest or weed control at 15.625 g/ha [11]: 0%; pest or weed control at 62.5 g/ha [11]: 10%; pest or weed control at 250 g/ha [11]: 20%; pest or weed control at 15.625 g/ha [12]: 0%; pest or weed control at 62.5 g/ha [12]: 0%; pest or weed control at 250 g/ha [12]: 0% |
